pIC50: −log10 of the molar value. Bridge positions count the residues as written; N and C are the ends. Square brackets hold non-standard residues; d marks the D form. Peptide text beside a SMILES is read from it. * marks the point of attachment. ξ: configuration not given here. Bip = N[C@@H](Cc1ccc(-c2ccccc2)cc1)C(=O)O; Phe(3-Me) = Cc1cccc(C[C@H](N)C(=O)O)c1; Cha = N[C@@H](CC1CCCCC1)C(=O)O; Cit = NC(=O)NCCC[C@H](N)C(=O)O; NMeN = CN[C@@H](CC(N)=O)C(=O)O; dNMeN = CN[C@H](CC(N)=O)C(=O)O; Thr(3ξ) = CC(O)[C@H](N)C(=O)O; Carboxymethyl = O=C(O)C*; Orn = NCCC[C@H](N)C(=O)O; Aun = NCCCCCCCCCCC(=O)O; Dab = NCC[C@H](N)C(=O)O; AEEA = NCCOCCOCC(=O)O; ξDab = NCCC(N)C(=O)O

This assay deals with T1, PD-1/PD-L1 interaction (PE-labeled human PD-L1-Ig binding to Jurkat cell line over-expressing human PD-1) (Homo sapiens, UniProt Q15116).
T1 construct: expressed in transfected cells; host or cells: Jurkat
T1 sequence (Q15116 25-288): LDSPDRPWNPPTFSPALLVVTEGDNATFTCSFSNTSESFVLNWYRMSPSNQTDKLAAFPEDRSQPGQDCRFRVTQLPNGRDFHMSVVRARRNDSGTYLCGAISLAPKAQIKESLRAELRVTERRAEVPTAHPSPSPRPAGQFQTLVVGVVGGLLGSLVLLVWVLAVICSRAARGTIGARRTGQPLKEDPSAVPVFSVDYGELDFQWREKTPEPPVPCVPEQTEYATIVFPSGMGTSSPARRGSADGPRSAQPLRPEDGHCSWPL
Description: Jurkat-PD-1 Cell Binding High-Content Screening Assay (CBA). The format is cell-based. As to conditions: Jurkat cell line over-expressing human PD-1; PE-labeled PD-L1-Ig 20 nM final; read-out: Jurkat hPD1-PDL1 IC50. In a few lines: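 Jurkat-hPD-1 cells, DMEM/10% FCS; cpd 2 h 37° C; PE-PD-L1-Ig 20 nM final, 1 h; 4% PFA fix + Hoechst 33342, 3× dPBS wash; high-content imaging read-out.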
Take `CC(C)C[C@H]1NC(=O)[C@H](CCCN)NC(=O)[C@H](C(C)C)NC(=O)[C@H](Cc2ccc(-c3ccccc3)cc2)NC(=O)[C@H](C(C)C)NC(=O)[C@H](Cc2c[nH]c3ccccc23)NC(=O)[C@H](CC(=O)O)NC(=O)[C@H](Cc2ccc(OCC(=O)O)cc2)NC(=O)[C@H](CCCNC(=N)N)NC(=O)CSC[C@@H](C(=O)N(C)[C@@H](CC(N)=O)C(=O)NCCCCCCCCCCC(=O)O)NC(=O)[C@H](CO)NC(=O)[C@H](C(C)C)NC(=O)[C@H](CC2CCCCC2)NC(=O)[C@H](CCN)NC1=O` [Compound 3438] ({CH2CO}-RY(Carboxymethyl)DWV[Bip]V[Orn][dL][Dab][Cha]VSC[NMeN][Aun]-OH; thioether N-14): the pIC50 (in general, −log10 of the IC50, conventionally taken in molar units) is 7.18.

With `Cc1cccc(C[C@@H]2NC(=O)[C@H](CC(=O)O)NC(=O)[C@H](Cc3ccc(OCC(=O)O)cc3)NC(=O)[C@H](C(C)O)NC(=O)CSC[C@@H](C(=O)N[C@@H](CCN)C(=O)NCCCCCCCCCCC(=O)O)NC(=O)[C@H](C(C)O)NC(=O)[C@H](C(C)C)NC(=O)[C@H](CC3CCCCC3)NC(=O)[C@H](CCN)NC(=O)[C@@H](CC(C)C)NC(=O)[C@H](CCCN)NC(=O)[C@H](CCC(=O)O)NC(=O)[C@H](Cc3ccc(-c4ccccc4)cc3)NC(=O)[C@H](C(C)C)NC2=O)c1` (stereo partly drawn) [Compound 3441] ({CH2CO}-[Thr(3ξ)]Y(Carboxymethyl)D[Phe(3-Me)]V[Bip]E[Orn][dL][Dab][Cha]V[Thr(3ξ)]C[Dab][Aun]-OH; thioether N-14), the pIC50 was 7.40.

For the molecule `Cc1cccc(C[C@@H]2NC(=O)[C@H](CC(=O)O)NC(=O)[C@H](Cc3ccc(OCC(=O)O)cc3)NC(=O)[C@H](C(C)O)NC(=O)CSC[C@@H](C(=O)NCCOCCOCC(=O)NCCCCCCCCCCC(=O)O)NC(=O)[C@H](C(C)O)NC(=O)[C@H](C(C)C)NC(=O)[C@H](CC3CCCCC3)NC(=O)[C@H](CCN)NC(=O)[C@@H](CC(C)C)NC(=O)[C@H](CCN)NC(=O)[C@H](C(C)C)NC(=O)[C@H](Cc3ccc(-c4ccccc4)cc3)NC(=O)[C@H](C(C)C)NC2=O)c1` (stereo partly drawn) [Compound 3442] ({CH2CO}-[Thr(3ξ)]Y(Carboxymethyl)D[Phe(3-Me)]V[Bip]V[Dab][dL][Dab][Cha]V[Thr(3ξ)]C[AEEA][Aun]-OH; thioether N-14), the pIC50 is 7.79.

Take `CC(=O)NCCCC[C@@H]1NC(=O)[C@H](C(C)C)NC(=O)[C@H](CC2CCCCC2)NC(=O)[C@H](CCN)NC(=O)[C@@H](CC(C)C)NC(=O)[C@H](CCN)NC(=O)[C@H](C(C)C)NC(=O)[C@H](Cc2ccc(-c3ccccc3)cc2)NC(=O)[C@H](C(C)C)NC(=O)[C@H](Cc2cccc(C)c2)NC(=O)[C@H](CC(=O)O)NC(=O)[C@H](Cc2ccc(OCC(=O)O)cc2)NC(=O)[C@H](C(C)O)NC(=O)CSC[C@@H](C(=O)NCCOCCOCC(=O)NCCCCCCCCCCC(=O)O)NC1=O` (stereo partly drawn) [Compound 3443] ({CH2CO}-[Thr(3ξ)]Y(Carboxymethyl)D[Phe(3-Me)]V[Bip]V[Dab][dL][Dab][Cha]VK(Ac)C[AEEA][Aun]-OH; thioether N-14): the pIC50 is 7.92.

For `Cc1cccc(C[C@@H]2NC(=O)[C@H](CC(=O)O)NC(=O)[C@H](Cc3ccc(OCC(=O)O)cc3)NC(=O)[C@H](C(C)O)NC(=O)CSC[C@@H](C(=O)N[C@H](CC(N)=O)C(=O)NCCCCCCCCCCC(=O)O)NC(=O)[C@H](C(C)O)NC(=O)[C@H](C(C)C)NC(=O)[C@H](CC3CCCCC3)NC(=O)[C@H](CCN)NC(=O)[C@@H](CC(C)C)NC(=O)[C@H](CCCN)NC(=O)[C@H](CCCNC(N)=O)NC(=O)[C@H](Cc3ccc(-c4ccccc4)cc3)NC(=O)[C@H](C(C)C)NC2=O)c1` (stereo partly drawn) [Compound 3444] ({CH2CO}-[Thr(3ξ)]Y(Carboxymethyl)D[Phe(3-Me)]V[Bip][Cit][Orn][dL][Dab][Cha]V[Thr(3ξ)]C[dN][Aun]-OH; thioether N-14), the pIC50 is 7.87.

In the case of `CC(=O)NCCCC[C@@H]1NC(=O)[C@H](C(C)C)NC(=O)[C@H](CC2CCCCC2)NC(=O)[C@H](CCN)NC(=O)[C@@H](CC(C)C)NC(=O)[C@H](CCCN)NC(=O)[C@H](C(C)C)NC(=O)[C@H](Cc2ccc(-c3ccccc3)cc2)NC(=O)[C@H](C(C)C)NC(=O)[C@H](Cc2cccc(C)c2)NC(=O)[C@H](CC(=O)O)NC(=O)[C@H](Cc2ccc(OCC(=O)O)cc2)NC(=O)[C@H](C(C)O)NC(=O)CSC[C@@H](C(=O)N(C)[C@H](CC(N)=O)C(=O)NCCCCCCCCCCC(=O)O)NC1=O` (stereo partly drawn) [Compound 3445] ({CH2CO}-[Thr(3ξ)]Y(Carboxymethyl)D[Phe(3-Me)]V[Bip]V[Orn][dL][Dab][Cha]VK(Ac)C[dNMeN][Aun]-OH; thioether N-14), the pIC50 was 6.80.

On to `CC(C)C[C@H]1NC(=O)[C@H](CCCN)NC(=O)[C@H](CCCNC(N)=O)NC(=O)[C@H](Cc2ccc(-c3ccccc3)cc2)NC(=O)[C@H](C(C)C)NC(=O)[C@H](Cc2c[nH]c3ccccc23)NC(=O)[C@H](CC(=O)O)NC(=O)[C@H](Cc2ccc(OCC(=O)O)cc2)NC(=O)[C@H](C(C)O)NC(=O)CSC[C@@H](C(=O)N[C@H](CCC(N)=O)C(=O)NCCCCCCCCCCC(=O)O)NC(=O)[C@H](C(C)O)NC(=O)[C@H](C(C)C)NC(=O)[C@H](CC2CCCCC2)NC(=O)[C@H](CCN)NC1=O` (stereo partly drawn) [Compound 3446] ({CH2CO}-[Thr(3ξ)]Y(Carboxymethyl)DWV[Bip][Cit][Orn][dL][Dab][Cha]V[Thr(3ξ)]C[dQ][Aun]-OH; thioether N-14), for which the pIC50 is 7.19.

Turning to `CC(=O)NCCCC[C@@H]1NC(=O)[C@H](C(C)C)NC(=O)[C@H](CC2CCCCC2)NC(=O)[C@H](CCN)NC(=O)[C@@H](CC(C)C)NC(=O)[C@H](CCCN)NC(=O)[C@H](C(C)C)NC(=O)[C@H](Cc2ccc(-c3ccccc3)cc2)NC(=O)[C@H](C(C)C)NC(=O)[C@H](Cc2cccc(C)c2)NC(=O)[C@H](CC(=O)O)NC(=O)[C@H](Cc2ccc(OCC(=O)O)cc2)NC(=O)[C@H](C(C)O)NC(=O)CSC[C@@H](C(=O)N[C@H](CCC(N)=O)C(=O)NCCCCCCCCCCC(=O)O)NC1=O` (stereo partly drawn) [Compound 3447] ({CH2CO}-[Thr(3ξ)]Y(Carboxymethyl)D[Phe(3-Me)]V[Bip]V[Orn][dL][Dab][Cha]VK(Ac)C[dQ][Aun]-OH; thioether N-14), the pIC50 was 7.98.

With `Cc1cccc(C[C@@H]2NC(=O)[C@H](CC(=O)O)NC(=O)[C@H](Cc3ccc(OCC(=O)O)cc3)NC(=O)[C@H](C(C)O)NC(=O)CSC[C@@H](C(=O)NC(CCN)C(=O)NCCCCCCCCCCC(=O)O)NC(=O)[C@H](C(C)O)NC(=O)[C@H](C(C)C)NC(=O)[C@H](CC3CCCCC3)NC(=O)[C@H](CCN)NC(=O)[C@@H](CC(C)C)NC(=O)[C@H](CCCN)NC(=O)[C@H](CCC(=O)O)NC(=O)[C@H](Cc3ccc(-c4ccccc4)cc3)NC(=O)[C@H](CCC(=O)O)NC2=O)c1` (stereo partly drawn) [Compound 3448] ({CH2CO}-[Thr(3ξ)]Y(Carboxymethyl)D[Phe(3-Me)]E[Bip]E[Orn][dL][Dab][Cha]V[Thr(3ξ)]C[ξDab][Aun]-OH; thioether N-14), the pIC50 was 7.04.

Consider `Cc1cccc(C[C@@H]2NC(=O)[C@H](CC(=O)O)NC(=O)[C@H](Cc3ccc(OCC(=O)O)cc3)NC(=O)[C@H](CCCNC(=N)N)NC(=O)CSC[C@@H](C(=O)N[C@@H](CCN)C(=O)NCCCCCCCCCCC(=O)O)NC(=O)[C@H](C(C)O)NC(=O)[C@H](C(C)C)NC(=O)[C@H](CC3CCCCC3)NC(=O)[C@H](CCN)NC(=O)[C@@H](CC(C)C)NC(=O)[C@H](CCCNC(N)=O)NC(=O)[C@H](Cc3ccc(OCC(=O)O)cc3)NC(=O)[C@H](Cc3ccc(-c4ccccc4)cc3)NC(=O)[C@H](C(C)C)NC2=O)c1` (stereo partly drawn) [Compound 3450] ({CH2CO}-RY(Carboxymethyl)D[Phe(3-Me)]V[Bip]Y(Carboxymethyl)[Cit][dL][Dab][Cha]V[Thr(3ξ)]C[Dab][Aun]-OH; thioether N-14), for which the pIC50 is 7.74.

Take `Cc1cccc(C[C@@H]2NC(=O)[C@H](CC(=O)O)NC(=O)[C@H](Cc3ccc(OCC(=O)O)cc3)NC(=O)[C@H](C(C)O)NC(=O)CSC[C@@H](C(=O)N[C@@H](CCN)C(=O)NCCCCCCCCCCC(=O)O)NC(=O)[C@H](C(C)O)NC(=O)[C@H](C(C)C)NC(=O)[C@H](CC3CCCCC3)NC(=O)[C@H](CCN)NC(=O)[C@@H](CC(C)C)NC(=O)[C@H](CCCNC(N)=O)NC(=O)[C@H](Cc3ccc(OCC(=O)O)cc3)NC(=O)[C@H](Cc3ccc(-c4ccccc4)cc3)NC(=O)[C@H](C(C)C)NC2=O)c1` (stereo partly drawn) [Compound 3451] ({CH2CO}-[Thr(3ξ)]Y(Carboxymethyl)D[Phe(3-Me)]V[Bip]Y(Carboxymethyl)[Cit][dL][Dab][Cha]V[Thr(3ξ)]C[Dab][Aun]-OH; thioether N-14): the pIC50 is 7.74.

As to `Cc1cccc(C[C@@H]2NC(=O)[C@H](CC(=O)O)NC(=O)[C@H](Cc3ccc(OCC(=O)O)cc3)NC(=O)[C@H](CCCNC(=N)N)NC(=O)CSC[C@@H](C(=O)N[C@H](CC(N)=O)C(=O)NCCCCCCCCCCC(=O)O)NC(=O)[C@H](C(C)O)NC(=O)[C@H](C(C)C)NC(=O)[C@H](CC3CCCCC3)NC(=O)[C@H](CCN)NC(=O)[C@@H](CC(C)C)NC(=O)[C@H](CCCN)NC(=O)[C@H](Cc3ccc(O)cc3)NC(=O)[C@H](Cc3ccc(-c4ccccc4)cc3)NC(=O)[C@H](C(C)C)NC2=O)c1` (stereo partly drawn) [Compound 3452] ({CH2CO}-RY(Carboxymethyl)D[Phe(3-Me)]V[Bip]Y[Orn][dL][Dab][Cha]V[Thr(3ξ)]C[dN][Aun]-OH; thioether N-14), the negative logarithm of the IC50 (pIC50) is 7.59.

Turning to `Cc1cccc(C[C@@H]2NC(=O)[C@H](CC(=O)O)NC(=O)[C@H](Cc3ccc(OCC(=O)O)cc3)NC(=O)[C@H](Cc3c[nH]cn3)NC(=O)CSC[C@@H](C(=O)N[C@@H](CCN)C(=O)NCCCCCCCCCCC(=O)O)NC(=O)[C@H](C(C)O)NC(=O)[C@H](C(C)C)NC(=O)[C@H](CC3CCCCC3)NC(=O)[C@H](CCN)NC(=O)[C@@H](CC(C)C)NC(=O)[C@H](CCCN)NC(=O)[C@H](CCCNC(N)=O)NC(=O)[C@H](Cc3ccc(-c4ccccc4)cc3)NC(=O)[C@H](C(C)C)NC2=O)c1` (stereo partly drawn) [Compound 3453] ({CH2CO}-HY(Carboxymethyl)D[Phe(3-Me)]V[Bip][Cit][Orn][dL][Dab][Cha]V[Thr(3ξ)]C[Dab][Aun]-OH; thioether N-14), the negative logarithm of the IC50 (pIC50) is 7.70.

(Values after US20260022142A1, “MACROCYCLIC IMMUNOMODULATORS” (Bristol-Myers Squibb Company, priority 2022, published 2026).)
